Experiments:
[1] = target: T1, deoxythymidine diphosphate glucose-4,6-dehydratase (dTGD) (Actinosynnema pretiosum, UniProt A0A290ZDY1); test: SPR (Biacore 8K, CM5 chip); also enzyme inhibition with KI =[…]; type: binding
T1 construct: gene rfbB; recombinant His-tagged, from pET30a in E. coli BL21(DE3)
T1 sequence (A0A290ZDY1 1-330): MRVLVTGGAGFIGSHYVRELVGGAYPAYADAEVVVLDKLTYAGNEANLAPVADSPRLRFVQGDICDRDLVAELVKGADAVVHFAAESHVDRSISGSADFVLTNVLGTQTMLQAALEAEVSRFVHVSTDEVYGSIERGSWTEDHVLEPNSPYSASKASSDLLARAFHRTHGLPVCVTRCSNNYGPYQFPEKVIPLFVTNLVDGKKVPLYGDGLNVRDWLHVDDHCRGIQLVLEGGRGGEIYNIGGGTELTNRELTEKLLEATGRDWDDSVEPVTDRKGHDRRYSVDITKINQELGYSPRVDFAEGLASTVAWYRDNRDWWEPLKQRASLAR

[2] = target: T2, flavin-dependent thymidylate synthase (FDTS) (Actinosynnema pretiosum, UniProt A0A290ZCH3); test: SPR (Biacore 8K, CM5 chip); also NADPH oxidase inhibition with KI =[…]; type: binding
T2 construct: gene thyX; recombinant His-tagged, from pET30a in E. coli BL21(DE3)
T2 sequence (A0A290ZCH3 1-250): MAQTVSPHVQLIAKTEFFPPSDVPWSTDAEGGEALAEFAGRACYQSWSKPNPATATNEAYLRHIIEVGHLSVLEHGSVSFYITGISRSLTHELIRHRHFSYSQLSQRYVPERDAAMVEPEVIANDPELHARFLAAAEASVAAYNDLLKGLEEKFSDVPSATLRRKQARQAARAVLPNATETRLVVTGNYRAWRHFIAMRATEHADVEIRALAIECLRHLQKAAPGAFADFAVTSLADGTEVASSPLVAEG

Work on `COc1cc2cc(c1Cl)N(C)C(=O)C[C@H](OC(=O)C(C)C)[C@]1(C)O[C@H]1[C@H](C)[C@@H]1C[C@@](O)(NC(=O)O1)[C@H](OC)/C=C/C=C(\C)C2` [AP-3, ansamitocin P-3] yielded a Kd [1] of 360 µM and a Kd [2] of 66.5 µM.

— paper PMC10439133, “Biosynthesis of ansamitocin P-3 incurs stress on the producing strain Actinosynnema pretiosum at multiple targets” (Communications Biology, 2023)
